Measurements reported in PubChem BioAssay (NCI).
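Tested at 5 concentrations; 48 h exposure; 96-well plates; endpoints linearly interpolated, else capped at highest concentration. At the GI50, growth is halved. TGI: concentration producing complete growth inhibition.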

Experiments:
Assay in all cases: growth of human tumour cells (NCI), 48 h
RXF 393 renal = tested on: RXF 393 renal
SK-OV-3 ovarian = tested on: SK-OV-3 ovarian
A498 renal = tested on: A498 renal
HOP-62 NSCLC = tested on: HOP-62 NSCLC
MDA-MB-231 breast = tested on: MDA-MB-231 breast
SW-620 colon = tested on: SW-620 colon
TK-10 renal = tested on: TK-10 renal
UACC-257 melanoma = tested on: UACC-257 melanoma
SF-268 CNS = tested on: SF-268 CNS
NCI-H522 lung = tested on: NCI-H522 lung

Row | Compound | GI50 (RXF 393 renal) [µM] | TGI (RXF 393 renal) [µM] | GI50 (SK-OV-3 ovarian) [µM] | TGI (SK-OV-3 ovarian) [µM] | GI50 (A498 renal) [µM] | TGI (A498 renal) [µM] | GI50 (HOP-62 NSCLC) [µM] | TGI (HOP-62 NSCLC) [µM] | GI50 (MDA-MB-231 breast) [µM] | TGI (MDA-MB-231 breast) [µM] | GI50 (SW-620 colon) [µM] | TGI (SW-620 colon) [µM] | GI50 (TK-10 renal) [µM] | TGI (TK-10 renal) [µM] | GI50 (UACC-257 melanoma) [µM] | TGI (UACC-257 melanoma) [µM] | GI50 (SF-268 CNS) [µM] | TGI (SF-268 CNS) [µM] | GI50 (NCI-H522 lung) [µM] | TGI (NCI-H522 lung) [µM]
1 | CSc1ccc(C2=NN(C(=O)c3ccc(N)cc3)C(c3ccc(F)cc3)C2)cc1 (stereo not drawn) | 17.7 | 34.1 | 16.2 | 31.7 | 12.9 | 27.3 | 16 | 29.8 | 12.6 | 30.6 | 6.27 | 26.3 | 7.5 | 26.1 | 20.4 | 35.6 | 3.09 | 12.6 | 13.8 | 30.9
2 | O=C1c2cccc3cc([N+](=O)[O-])cc(c23)C(=O)N1O |  | > 100 |  | > 100 |  |  |  | > 100 |  | > 100 |  | > 100 |  | 83.6 |  | > 100 |  | > 100 |  | > 100
3 | C=C1CO[C@@H]2C[C@@H]1CC/C(C)=C/CC/C(C)=C/CC[C@@]2(C)O | 20 | 39.3 | 24 | 56.6 | 35.8 | > 76.2 | 17.1 | 32.5 | 15.5 | 33.3 | 22.2 | 45.9 | 18.4 | 36.2 | 16.8 | 39.1 | 20.1 | 50.5 | 21.1 | 45.2
4 | CCCCCc1c(C)[nH]c(/C=c2\[nH]/c(=C3/C=c4ccccc4=N3)cc2OC)c1C | 0.086 | 0.755 | 0.449 | 4.55 | 0.0944 | 1.75 | 0.0767 | 0.438 | 0.0266 | 0.232 | 0.0341 | 2.84 | 0.0504 | 0.716 | 0.394 | 1.73 | 0.077 | 2.43 | 0.101 | 1.7
5 | COc1ccc(C2C3=C(COC3=O)N(CCO)c3cc4c(cc32)OCCO4)cc1OC (stereo not drawn) | 0.807 | 2.86 | 1.98 | > 50 | 1.61 | > 15.6 | 9.58 | > 50 | 6.78 | 36.5 | 1.8 | > 50 | > 10.2 | > 36.3 | 2.4 | > 50 | 4.3 | > 50 | 0.27 | 1.38
6 | Cc1cc2nc3c4ccccc4n(CCN(C)C)c3nc2cc1C | 1.56 | 4.1 | 3.1 | 20.2 | 1.43 | 2.86 | 1.11 | 7.74 | 1.76 | 9.91 | 0.54 | 9.59 | 2.98 | 14.1 | 1.94 | 5.16 | 1.45 | 5.86 | 0.673 | 3.24
7 | CCOc1cc(/C=N\NC(=O)N/N=C/c2ccc(O)c(OCC)c2)ccc1O | 1.76 | 7.19 | 1.25 | > 100 | 5.68 | 61.3 |  | > 100 | 6.45 | > 100 | 0.959 | > 100 | > 29.1 | > 100 | 72.1 | > 100 | 5.69 | > 100 | 0.281 | 1.49
8 | CC1(C)CC2CC(C)(CN2c2ncnc3ccc(Br)cc23)C1 (stereo not drawn) | 11 | 23.6 | 16.8 | 31.2 |  |  | 12.9 | 25.6 | 2 | 12.4 | 15 | 30.7 | 11.4 | 23.6 |  |  | 17.9 | 37.9 | 13 | 29.3
9 | N#Cc1c(Oc2ccc(F)c(NC(=O)Cc3cccc(C(F)(F)F)c3)c2)ccc2nc(NC(=O)C3CC3)sc12 | 1.31 | 5.39 | 1.93 | > 100 | 0.224 | 2.56 | 0.472 | > 100 | 0.422 | 6.26 | 0.585 | > 100 | 1.86 | > 100 | 0.0253 | 0.203 | 1.35 | > 100 | 0.942 | > 25
10 | CNCCOc1nc2c3cnccc3cc(-c3cc(OC)c(OC)c(OC)c3)c2c2ccncc12 | 0.0469 | 0.188 | 0.0323 | 0.185 | 0.0478 | 0.163 | 0.0224 | 0.166 | 0.0765 | 1.18 | 0.0243 | 1.7 | 0.0686 | 0.366 | 0.13 | 0.728 | 0.033 | 0.623 | 0.0666 | 0.661
11 | CN(NC(=O)CC(=O)NN(C)C(=S)c1ccc(Cl)cc1)C(=S)c1ccc(Cl)cc1 | 14.7 | 65.4 | 34.7 | 83.8 |  |  | 20.5 | 70.8 | 19.8 | 65.2 | 29.3 | > 100 | 23 | > 100 |  |  | 19.6 | > 100 | 19.1 | 60.2
12 | CCS/C(Nc1ccccc1)=C(\C#N)C(=O)N/N=C/c1ccc(Cl)cc1Cl | 2.06 | 8.66 | 3.72 | > 100 | 1.87 | 37.8 | 3.66 | > 100 | 4.75 | > 100 | 4.65 | > 100 | 10.2 | > 100 | 25.7 | > 100 | 6.58 | > 100 |  | 
